Assay results as given in patent US20250242043A1, “ANTIBODY-DRUG CONJUGATE COMPRISING ANTIBODY AGAINST HUMAN TROP2 AND USE THEREOF” (priority 2022, published 2025).
Square brackets hold non-standard residues; d marks the D form. Peptide text beside a SMILES is read from it. * marks the point of attachment. Dolaproine = CO[C@@H]([C@@H]1CCCN1)[C@@H](C)C(=O)O; Dil = CC[C@H](C)[C@H](NC)[C@@H](CC(=O)O)OC; X1 = C[C@@H](N*)[C@@H](O)c1ccccc1; NMeV = CN[C@H](C(=O)O)C(C)C

Key:
Test in all cases: In vitro cytotoxicity (cell proliferation inhibition), SRB dye or Cell titer glo
Format in all cases: cell-based, human
BxPC-3 = conditions: BxPC-3, 144 hours
Procedure: (§1) The cell proliferation inhibitory activity of the ADC produced according to <Example 2> and the drug alone included in the ADC against cancer cell lines were measured.
(§2) Specifically, human pancreatic cancer cell lines (BxPC-3, Capan-1, and PATU-8988s), breast cancer cell lines (JIMT-1 and MDA-MB-468), gastric cancer cell lines (NCI-N87, SNU-601, and SNU-620), colon cancer cell lines (HCT15, HT29, DLD-1, SW480, and COLO205), an ovarian cancer cell line (OVCAR-3), prostate cancer cell lines (PC-3 and LNCaP), and non-small cell lung cancer cell lines (NCI-H1781, HCC827, Calu-1, and Calu-3), which are commercially available as cancer cell lines, were used. MMAE as a drug alone included in the ADC prepared according to Example 3 and SG2057 (CAS #: 260417-62-7, MedKoo Biosciences) as a PBD dimer were used. 500 cells/well to 5,000 cells/well of each cancer cell line were seeded into a 96-well plate and cultured for 24 hours, and then each of ADC1, ADC2 and ADC3 produced according to Example 3 and the drugs MMAE and SG2057 alone were treated at a concentration of […] to 100 nM (5-fold serial dilution). After 144 hours, the number of living cells was quantified using a sulforhodamine B (SRB) dye or Cell titer glo.

COLO205 = conditions: COLO205, 144 hours
Procedure: as §1, §2

Calu-1 = conditions: Calu-1, 144 hours
Procedure: as §1, §2

Calu-3 = conditions: Calu-3, 144 hours
Procedure: as §1, §2

Capan-1 = conditions: Capan-1, 144 hours
Procedure: as §1, §2

DLD-1 = conditions: DLD-1, 144 hours
Procedure: as §1, §2

HCC827 = conditions: HCC827, 144 hours
Procedure: as §1, §2

HCT15 = conditions: HCT15, 144 hours
Procedure: as §1, §2

HT29 = conditions: HT29, 144 hours
Procedure: as §1, §2

JIMT-1 = conditions: JIMT-1, 144 hours
Procedure: as §1, §2

LNCaP = conditions: 144 hours
Procedure: as §1, §2

MDA-MB-468 = conditions: MDA-MB-468, 144 hours
Procedure: as §1, §2

NCI-H1781 = conditions: NCI-H1781, 144 hours
Procedure: as §1, §2

NCI-N87 = conditions: NCI-N87, 144 hours
Procedure: as §1, §2

OVCAR-3 = conditions: OVCAR-3, 144 hours
Procedure: as §1, §2

PC-3 = conditions: PC-3, 144 hours
Procedure: as §1, §2

Patu8988S = conditions: 144 hours
Procedure: as §1, §2

SNU-601 = conditions: SNU-601, 144 hours
Procedure: as §1, §2

SNU-620 = conditions: SNU-620, 144 hours
Procedure: as §1, §2

SW480 = conditions: SW480, 144 hours
Procedure: as §1, §2

With CC[C@H](C)[C@@H]([C@@H](CC(=O)N1CCC[C@H]1[C@H](OC)[C@@H](C)C(=O)N[C@H](C)[C@@H](O)c1ccccc1)OC)N(C)C(=O)[C@@H](NC(=O)[C@@H](NC)C(C)C)C(C)C [MMAE, monomethyl auristatin E] (H-[NMeV]V[Dil][Dolaproine]-X1) as the molecule, how does the CC50 (BxPC-3) read?
Its CC50 is 0.606 nM.

What about the CC50 (COLO205) of the same molecule?
Its CC50 is 0.628 nM.

What about the CC50 (Calu-1) of the same molecule?
The CC50 was 0.971 nM.

What about the CC50 (Calu-3) of the same molecule?
Its CC50 is 0.4 nM.

What about the CC50 (Capan-1) of the same molecule?
Its CC50 is 0.52 nM.

What about the CC50 (DLD-1) of the same molecule?
The CC50 was 8.88 nM.

What about the CC50 (HCC827) of the same molecule?
Its CC50 is 0.674 nM.

And the CC50 (HCT15)?
The CC50 was 3.87 nM.

And the CC50 (HT29)?
Its CC50 is 0.33 nM.

And the CC50 (JIMT-1)?
Its CC50 is 0.154 nM.

And the CC50 (LNCaP)?
The CC50 was 0.551 nM.

And the CC50 (MDA-MB-468)?
The CC50 was 0.64 nM.

And the CC50 (NCI-H1781)?
Its CC50 is 0.208 nM.

And the CC50 (NCI-N87)?
Its CC50 is 0.725 nM.

And the CC50 (OVCAR-3)?
Its CC50 is 0.304 nM.

What about the CC50 (PC-3) of the same molecule?
The CC50 was 0.946 nM.

What about the CC50 (Patu8988S) of the same molecule?
The CC50 was 0.334 nM.

What about the CC50 (SNU-601) of the same molecule?
The CC50 was 0.268 nM.

And the CC50 (SNU-620)?
Its CC50 is 0.651 nM.

What about the CC50 (SW480) of the same molecule?
Its CC50 is 3.83 nM.

For C=C1C[C@H]2C=Nc3cc(OCCCCCOc4cc5c(cc4OC)C(=O)N4CC(=C)C[C@H]4C=N5)c(OC)cc3C(=O)N2C1 [SG2057], which CC50 (DLD-1) is on record?
Its CC50 is 0.05 nM.

What about the CC50 (HCT15) of the same molecule?
Its CC50 is 0.161 nM.

What about the CC50 (HT29) of the same molecule?
Its CC50 is 0.02 nM.
